In publication PMC11738990, “A small-molecule TNIK inhibitor targets fibrosis in preclinical and clinical models” (Nature Biotechnology, 2024):
Several values for one entry are separate records, joined by “and”; a condition that tells them apart may be missing. Identical values can stand only once. Like-named read-outs stand apart in the source and are kept apart here.

How the values were obtained:
MRC-5 cells = experiment: TGF-β-induced α-SMA protein expression, western blot; type: cell-based, human; details: TGF-β1 2 ng/ml, 72 h; read-out: IC50, TGF-β-induced α-SMA/GAPDH
Experimental: MRC-5 cells were cultured in a monolayer with DMEM high-glucose medium supplemented with 10% FBS at 37 °C with 5% CO2. Cells were seeded in six-well plates in three replicate wells per condition at a density of 2.5 × 10^5 cells per well and cultured for 24 h. […] Vehicle (2% FBS–DMEM, containing 0.1% DMSO) was added into the blank control group and the model group, and pre-incubation was continued for 2 h. Next, TGF-β1 was added into each well of the administration group and the model group (final concentration in each well was 2 ng ml^−1), and the same volume of vehicle was added into each well of the blank control group for 72 h of incubation (the culture medium was changed once after 48 h of incubation). After incubation, the cells were collected and digested with 0.5% trypsin, protein was extracted and total protein content was determined by the BCA method.
For whole-cell lysates, cells were collected and lysed on ice for 20 min with RIPA buffer with protease and phosphatase inhibitors (cOmplete and PhosSTOP, Roche). The protein concentration of the cell lysates was determined using the BCA Protein Assay Kit. […] Integrated intensity of bands from 16-bit blot images was used for quantitation with the software Image Studio Lite. Protein-quantification data of two independent experiments were calculated and analyzed using GraphPad.

C57BL/6 mice = experiment: LPS-induced acute lung injury model; type: in vivo, mouse; details: individual animals, Fig 3E-F;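 further: bronchoalveolar lavage fluid sampled one day after intratracheal LPS challenge, cytokines measured by ELISA in supernatant, lymphocytes counted on Diff-Quick stained cytospin smears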
Experimental: One day before the first experimental day, animals were grouped. All mice were anesthetized with Zoletil–xylazine (50 mpk and 10 mpk, i.p.). At 0 h, mice received LPS at a dose of 50 μl as 50 μg per mouse (groups 2–5, n = 8 per group) or 50 μl saline (group 1, n = 8 per group) by intratracheal administration. […] In the dexamethasone group (group 5), animals were treated with dexamethasone both 2 h before and 4 h after the LPS challenge. Twenty-four hours after the LPS challenge, animals were euthanized, and BALF samples were collected.
Mice were first anesthetized with Zoletil–xylazine (50 mpk and 10 mpk, i.p.). Next, a 1.5–2-cm longitudinal incision was made on the ventral side of the neck to expose the trachea by blunt dissection, and curved forceps were placed underneath the trachea. A 10–12-cm piece of suture was then threaded underneath the trachea using forceps. The ends of the suture were then pulled cranially to ‘stretch’ the trachea toward the surgeon. A 20-G needle was then used to poke a hole in the trachea as close to the larynx as possible. A 22-G blunt stainless steel needle connected to PE tubing was placed in the hole and inserted approximately 5–8 mm into the trachea. The cannula was secured in the trachea by tying the suture around it with an overhand knot. A 1-ml syringe containing 0.4 ml saline was gently pushed forward and backward three times to recover BALF fluid. BALF was transferred into empty tubes and stored on ice. This process was repeated twice with 0.3 ml saline for a total volume of 1 ml.
Total cell numbers were counted with a standard hemocytometer by mixing 20 μl BALF with 20 μl trypan blue. Cytospins were prepared by cytocentrifugation using Cytospins at 106g for 5 min, and then smears of BALF cells were stained with Diff-Quick stain. Cell differentiation was performed by counting at least 400 cells using standard hemocytologic criteria to classify them as alveolar macrophages or monocytes, neutrophils, eosinophils or lymphocytes. The rest of the BALF fluid was centrifuged, and supernatants were collected and stored at −80 °C for cytokine, chemokine and total protein analysis.
From the collected BALF, concentrations of cytokines were measured from mice in groups 2–7 killed on day 28. Mouse BALF cytokines and chemokines were measured using the ELISA Analysis Kit (Sinobest Bio). Mouse BALF soluble collagen was measured using the Soluble Collagen kit (Biocolor). Mouse lung hydroxyproline content was measured using the Hydroxyproline Assay Kit (Njjcbio).

CD-1 mice = details: single IV; ref Insilico Medicine, 2021; cited from earlier work
NHDF cells = experiment: Fibronectin and procollagen I in supernatant (ELISA); type: cell-based, human; details: TGF-β 10 ng/ml, 72 h
Experimental: The medium was then replaced with assay medium containing or not containing (control conditions) the test compounds, and TGF-β (10 ng ml^−1) was added or not (unstimulated control). […] Fibronectin and procollagen I contents were measured in the culture supernatants using specific ELISA kits (Takara, MK115 for fibronectin and MK101 for procollagen type I) according to the supplier’s instructions.

[1] = tested on: primary bronchial epithelial cells from healthy donors; experiment: EMT by FN1, high-content analysis; type: cell-based, human; details: three healthy individuals
Experimental: For the measurement of EMT by FN1, on the first day, human primary bronchial epithelial cells were seeded. After 2 d, the medium of the cells was refreshed. […] After 1 h, all cells were treated with 5 ng ml^−1 TGF-β1. On the ninth day (72 h after triggering), cells were fixed with 4% formaldehyde, stained for FN1 and with DAPI and then imaged and quantified via HCA (IN Cell Analyzer 2200, GE Healthcare).
Segmentation and quantification of α-SMA and FN1 immunoreactivity was carried out with an HCA algorithm, with density × area (D × A) output. Data normalization of raw α-SMA or FN1 (D × A) to percent inhibition values was performed on a plate-to-plate basis.
[…]
μp is the average α-SMA or FN1 value of the positive control (TGF-β1 + 1 μM SB525334). μn is the average α-SMA or FN1 value of the vehicle control (TGF-β1 + 0.1% DMSO). Xi is the compound α-SMA or FN1 value. IC50 values for all compounds (if calculable, based on the point of inflection) were calculated with GraphPad Prism using non-linear fit of log (inhibitor) versus response (four parameter).
DAPI fluorescence was applied for HCA-based quantification of the number of imaged cells on a plate-to-plate basis.
Percent remaining cells = (Xi/μn) × 100%
μn is the average number of nuclei of the vehicle control (TGF-β1 + 0.1% DMSO). Xi is the compound number of nuclei.

Sprague Dawley rats [2] = experiment: Bleomycin-induced skin scarring model; type: in vivo, rat; details: 0.05% topical
Experimental: Animals were anesthetized using isoflurane. Using a 1-ml syringe containing a 27-gauge needle, 100 µl bleomycin (1 mg ml^−1 in PBS) solution was injected subcutaneously into two sites on the shaved dorsal regions, QD for 4 weeks. Rats in the naive control group were injected daily with an equivalent volume of sterile PBS. […] After 4 weeks of treatment, animals were killed with CO2, and skin was collected.
Hydroxyproline and collagen concentrations were normalized to total protein content using the Bradford method.

Sprague Dawley rats [3] = experiment: Bleomycin-induced lung fibrosis model, inhalation administration; type: in vivo, rat; details: individual animals, Fig 4
Experimental: On day 1 of the study, bleomycin hydrochloride was administered to 8–9-week-old Sprague Dawley rats at a final concentration of 1.5 mg ml^−1 in sodium chloride solution (dosed volume at 1.0 ml per kg) by intratracheal atomization (once in the morning and once in the afternoon) to build the pulmonary fibrosis model.
A German PARI compression atomizer (PARI TurboBOY) was set at an aerosol flow rate of 9–10 l min^−1. […] The dilution flow of aerosol was set at 0 l min^−1, and the pumping-out flow from the chamber was set at 6 l min^−1. The fluid rate was set at 0.5 ml min^−1 for test article replenishment. Before nebulization, aerosol-generation conditions were validated three times.
And these parameters were recorded in real time during the experiment.
For concentration assessment, a glass fiber filter membrane (φ = 37 mm) was used to measure aerosol concentrations during drug administration from approximately day 8 to day 28. Sampling was taken at 5 min (±1 min) after drug administration from a random exposure port. […] Aerosol particle size parameters were calculated with the system software: median mass aerodynamic diameter (MMAD), geometric standard deviation, fine particle fraction (percentage of fine particles with MMAD < 5 μm), etc.
On day 29 and before euthanasia, animals were anesthetized with chloral hydrate (90 mg ml^−1, 5 ml per kg, i.p.). Necks were cut longitudinally at the middle to isolate trachea, and a catheter was intubated into the trachea toward the tail direction and fixed with a suture thread. The anesthetized animals were placed into the plethysmography chamber, to which the airway was connected. The AniRes2005 animal lung function-analysis system was used to assess parameters including FVC, airway resistance and pulmonary compliance. The ventilator respiration rate was set to 65 beats per minute; the respiration ratio was set to 20:10; the negative pressure controller was set to 30 cm H2O. FVC detection was set to pressure-control mode, while pressure was set to 30 cm H2O. The startup mode was selected to automatically detect at the end of breath, and the ‘Start’ button was clicked to passively inhale and then turned to exhale after reaching the set pressure value. Next, the ‘Stop’ button was clicked to complete an FVC detection. Each animal was evaluated for FVC at least five times. The final result was the mean value after the maximum and minimum data were excluded for analysis.

[4] = G4 INS018_055 3mpk BID, 3 mg/kg
[5] = G5 INS018_055 10mpk BID, 10 mg/kg
[6] = G7 INS018_055 20mpk QD, 20 mg/kg

SMILES: CC(C)n1cnc(-c2ccc(F)cc2)c1-c1nc(C(=O)Nc2ccc(N3CCN(C)CC3)cc2)c[nH]1 [INS018_055, 2-[4-(4-fluorophenyl)-1-(prop-2-yl)imidazol-5-yl]-N-[4-(4-methylhexahydropyrazin-1-yl)phenyl]-1H-imidazole-4-carboxamide]
- IC50 (MRC-5 cells): 27.1 nM
- IL-1β (C57BL/6 mice; [4]): 76.808 and 90.9173 and 84.4347 and 88.6293 and 81.7653 and 68.4187 and 91.2987 and 66.512
- IL-4 (C57BL/6 mice; [4]): 44.4779 and 48.864 and 44.3266 and 42.2092 and 40.6967 and 44.6291 and 41.1504 and 43.4191
- IL-6 (C57BL/6 mice; [4]): 23.78 and 22.3 and 25.4 and 24.37 and 27.02 and 28.05 and 25.54 and 22.45
- IL-7 (C57BL/6 mice; [4]): 29.29 and 30.58 and 25.61 and 25.43 and 23.95 and 22.3 and 26.16 and 33.16
- Lymphocytes (C57BL/6 mice; [4]): 9000 and 7000 and 5750 and 18000 and 15600 and 4800 and 11200 and 5600
- TNF-alpha (C57BL/6 mice; [4]): 286.33 and 268.83 and 288.52 and 360.7 and 260.08 and 336.64 and 303.83 and 209.77
- IL-1β (C57BL/6 mice; [5]): 66.512 and 53.5467 and 55.0721 and 69.944 and 59.2667 and 64.2241 and 56.5974
- IL-4 (C57BL/6 mice; [5]): 47.5028 and 53.8551 and 49.9227 and 42.8141 and 45.5366 and 45.0828 and 51.2839 and 46.8978
- IL-6 (C57BL/6 mice; [5]): 20.39 and 23.04 and 25.84 and 22.45 and 25.99 and 18.47 and 19.8
- IL-7 (C57BL/6 mice; [5]): 19.9 and 17.14 and 19.72 and 14.2 and 24.69 and 21.38 and 23.4 and 26.72
- Lymphocytes (C57BL/6 mice; [5]): 19800 and 10350 and 7200 and 6000 and 5400 and 8200 and 6450
- TNF-alpha (C57BL/6 mice; [5]): 238.21 and 262.27 and 306.02 and 187.89 and 181.33 and 336.64 and 196.64 and 198.83
- IL-1β (C57BL/6 mice; G6 INS018_055 6mpk QD, 6 mg/kg): 71.4694 and 80.24 and 88.248 and 64.6054 and 63.0801 and 87.104 and 80.6214
- IL-4 (C57BL/6 mice; G6 INS018_055 6mpk QD, 6 mg/kg): 42.3604 and 46.7466 and 42.8141 and 44.4779 and 47.9565 and 44.7804 and 48.7128 and 38.7305
- IL-6 (C57BL/6 mice; G6 INS018_055 6mpk QD, 6 mg/kg): 27.31 and 23.19 and 22.45 and 27.76 and 33.8 and 25.99 and 28.93 and 26.87
- IL-7 (C57BL/6 mice; G6 INS018_055 6mpk QD, 6 mg/kg): 27.82 and 30.4 and 27.08 and 33.16 and 21.19 and 31.69 and 25.8 and 28.37
- Lymphocytes (C57BL/6 mice; G6 INS018_055 6mpk QD, 6 mg/kg): 5200 and 1650 and 3850 and 2700 and 5250 and 5500 and 2600
- TNF-alpha (C57BL/6 mice; G6 INS018_055 6mpk QD, 6 mg/kg): 290.7 and 236.02 and 376.01 and 218.52 and 330.08 and 244.77 and 391.33 and 310.39
- IL-1β (C57BL/6 mice; [6]): 62.6987 and 77.952 and 78.7147 and 61.5547 and 74.52 and 71.8507 and 60.7921 and 57.3601
- IL-4 (C57BL/6 mice; [6]): 48.1078 and 43.2679 and 48.4103 and 52.3427 and 52.0402 and 44.6291 and 51.7377 and 50.074
- IL-6 (C57BL/6 mice; [6]): 22.74 and 25.84 and 21.71 and 18.17 and 26.58 and 23.63 and 22.15 and 25.69
- IL-7 (C57BL/6 mice; [6]): 16.59 and 21.38 and 22.67 and 18.98 and 27.45 and 24.14 and 31.32 and 16.04
- Lymphocytes (C57BL/6 mice; [6]): 6500 and 7200 and 8250 and 11600 and 6900 and 1650 and 6100 and 2700
- TNF-alpha (C57BL/6 mice; [6]): 244.77 and 214.14 and 279.77 and 218.52 and 163.83 and 341.01 and 179.15 and 292.89
- LOAEL (CD-1 mice): 10 mg/kg
- IC50 (NHDF cells; read-out: IC50, fibronectin in supernatant): ~135 nM
- IC50 (NHDF cells; read-out: IC50, procollagen I in supernatant): ~232 nM
- IC50 [1]: 63 nM (2×) and 500 nM
- Hydroxyproline in skin (Sprague Dawley rats [2]): 1036.36 and 1122.01 and 1193.18 and 833.714 and 660.98
- Total collagen in skin (Sprague Dawley rats [2]): 114.74 and 120.73 and 157.27 and 80.17 and 90.17
- Cdyn (Sprague Dawley rats [3]; INS018_055 0.1 mg/mL): 0.2868 mL/cmH2O and 0.282 mL/cmH2O and 0.2528 mL/cmH2O and 0.2276 mL/cmH2O and 0.2464 mL/cmH2O and 0.2949 mL/cmH2O and 0.266 mL/cmH2O and 0.2918 mL/cmH2O and 0.3725 mL/cmH2O
- FVC (Sprague Dawley rats [3]; INS018_055 0.1 mg/mL): 11.667 and 10.372 and 9.331 and 9.408 and 9.013 and 11.225 and 10.246 and 9.406 and 11.458
- MT staining for fibrosis (Sprague Dawley rats [3]; INS018_055 0.1 mg/mL): 39.4049 and 24.0295 and 21.4518 and 29.9242 and 25.5526 and 41.2629 and 23.5476 and 24.3272 and 18.8851
- Modified Ashcroft Score (Sprague Dawley rats [3]; INS018_055 0.1 mg/mL): 3.58 and 3.5 and 3.67 and 4.67
- RL (Sprague Dawley rats [3]; INS018_055 0.1 mg/mL): 0.2183 cmH2O and 0.2228 cmH2O and 0.249 cmH2O and 0.2763 cmH2O and 0.2553 cmH2O and 0.2139 cmH2O and 0.2369 cmH2O and 0.215 cmH2O and 0.1673 cmH2O
- Cdyn (Sprague Dawley rats [3]; INS018_055 0.3 mg/mL): 0.1877 mL/cmH2O and 0.26 mL/cmH2O and 0.28 mL/cmH2O and 0.2261 mL/cmH2O and 0.2364 mL/cmH2O and 0.2626 mL/cmH2O and 0.2848 mL/cmH2O and 0.214 mL/cmH2O and 0.2795 mL/cmH2O
- FVC (Sprague Dawley rats [3]; INS018_055 0.3 mg/mL): 8.356 and 10.531 and 9.955 and 8.979 and 9.285 and 9.684 and 11.437 and 8.52 and 10.758
- MT staining for fibrosis (Sprague Dawley rats [3]; INS018_055 0.3 mg/mL): 37.0531 and 32.9417 and 33.2766 and 28.9122 and 24.8997 and 24.7844 and 23.0018 and 21.403 and 19.6831
- Modified Ashcroft Score (Sprague Dawley rats [3]; INS018_055 0.3 mg/mL): 3.33 and 3.5 and 3.42 and 3.17 and 3.25
- RL (Sprague Dawley rats [3]; INS018_055 0.3 mg/mL): 0.334 cmH2O and 0.2417 cmH2O and 0.2246 cmH2O and 0.2783 cmH2O and 0.266 cmH2O and 0.2397 cmH2O and 0.2213 cmH2O and 0.2931 cmH2O and 0.2253 cmH2O
- Cdyn (Sprague Dawley rats [3]; INS018_055 1 mg/mL): 0.2887 mL/cmH2O and 0.2534 mL/cmH2O and 0.2831 mL/cmH2O and 0.2977 mL/cmH2O and 0.3373 mL/cmH2O and 0.3256 mL/cmH2O and 0.3052 mL/cmH2O and 0.2663 mL/cmH2O and 0.1759 mL/cmH2O
- FVC (Sprague Dawley rats [3]; INS018_055 1 mg/mL): 11.605 and 10.16 and 11.107 and 11.731 and 11.449 and 11.248 and 11.212 and 9.823 and 10.688
- MT staining for fibrosis (Sprague Dawley rats [3]; INS018_055 1 mg/mL): 13.0601 and 19.1932 and 11.5913 and 20.3302 and 12.2482 and 5.166 and 2.8883 and 26.6827 and 9.6738
- Modified Ashcroft Score (Sprague Dawley rats [3]; INS018_055 1 mg/mL): 3.08 and 2.5 and 1.92 and 1.58
- RL (Sprague Dawley rats [3]; INS018_055 1 mg/mL): 0.2246 cmH2O and 0.2544 cmH2O and 0.2308 cmH2O and 0.2117 cmH2O and 0.1856 cmH2O and 0.1933 cmH2O and 0.2063 cmH2O and 0.2431 cmH2O and 0.3604 cmH2O
- Cdyn (Sprague Dawley rats [3]; INS018_055 6 mg/mL): 0.2872 mL/cmH2O and 0.2596 mL/cmH2O and 0.2974 mL/cmH2O and 0.09892 mL/cmH2O and 0.2655 mL/cmH2O and 0.2689 mL/cmH2O and 0.283 mL/cmH2O and 0.2425 mL/cmH2O and 0.303 mL/cmH2O
- FVC (Sprague Dawley rats [3]; INS018_055 6 mg/mL): 10.938 and 9.019 and 10.156 and 12.074 and 10.094 and 10.135 and 10.127 and 8.751 and 10.893
- MT staining for fibrosis (Sprague Dawley rats [3]; INS018_055 6 mg/mL): 11.7864 and 15.1925 and 36.9642 and 17.393 and 15.0833 and 12.2135 and 12.9504 and 11.5722 and 12.5986
- Modified Ashcroft Score (Sprague Dawley rats [3]; INS018_055 6 mg/mL): 2.25 and 3.08 and 3
- RL (Sprague Dawley rats [3]; INS018_055 6 mg/mL): 0.2197 cmH2O and 0.2419 cmH2O and 0.2117 cmH2O and 0.6313 cmH2O and 0.2427 cmH2O and 0.2338 cmH2O and 0.2227 cmH2O and 0.2591 cmH2O and 0.2072 cmH2O
